# In US6043228A, “O^6 -substituted guanine derivatives, a process for their preparation and their use in treating tumor cells” (Cancer Research Campaign Technology Limited, priority 1993, dated 2000):
# “And” between values parts separate entries of the source, which are not always exact repeats. Equal entries are not always repeated. “Also recorded” adds a separate entry of the source.
# Legend:
# recombinant human ATase = biological target: T1, recombinant human ATase (Homo sapiens, UniProt P16455); test: In vitro ATase inactivation assay (incubation with inactivators and ATase assay); type: biochemical; conditions: for ATase inactivation in vitro, result in words: recombinant human ATase, standard conditions
# T1 construct: made in house
# T1 sequence (P16455 1-207): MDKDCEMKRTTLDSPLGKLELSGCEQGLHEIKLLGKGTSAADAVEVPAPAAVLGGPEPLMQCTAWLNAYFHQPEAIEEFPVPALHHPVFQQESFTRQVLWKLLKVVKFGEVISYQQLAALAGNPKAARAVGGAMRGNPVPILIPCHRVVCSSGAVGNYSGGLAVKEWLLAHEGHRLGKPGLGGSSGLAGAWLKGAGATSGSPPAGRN
# Description: The cDNA cloning and overexpression of the human ATase has been reported previously^23. Purification of the recombinant proteins was achieved either by affinity chromatography through a DNA-cellulose column as described by Wilkinson et al.,^25, 26 or by DEAE-cellulose ion-exchange chromatography. For the latter, the ATase protein was partially purified by ammonium sulphate precipitation (30-60%) and dialysed against 10 mM Tris-HCl pH 7.5, 1 mM DTT, 2 mM EDTA, 10% glycerol, before loading on a DEAE-cellulose column. The ATase was then eluted with a 0-0.1 M NaCl gradient.
# Compounds to be tested were dissolved in DMSO to a final concentration of 10 mM and diluted just before use in buffer I containing 1 mg/ml bovine serum albumin (IBSA). Recombinant ATase was diluted in IBSA and titrated in order that the reaction be conducted under ATase, and not substrate, limiting conditions. […] Following acid hydrolysis of the DNA as previously described^21 the [^3 H]-methylated protein was recovered and quantitated by liquid scintillation counting. Samples were typically assayed in duplicate and experiments repeated several times. I50 is the concentration of inactivator required to produce a 50% reduction in ATase activity.
# ATase = biological target: T2, ATase (Mus musculus, UniProt P26187); test: ATase activity in tissues of nude mice after inactivator; type: in vivo; conditions: for inactivation of ATase in mouse tissues, in words: single dose (FIG. 18, Table 10)
# T2 construct: Effect of B.4280 on ATase activity in several tissues of nude mice; from tissue; host or cells: liver, lung, kidney, spleen, brain, testis and bone marrow of nu/nu mice
# T2 sequence (P26187 1-211): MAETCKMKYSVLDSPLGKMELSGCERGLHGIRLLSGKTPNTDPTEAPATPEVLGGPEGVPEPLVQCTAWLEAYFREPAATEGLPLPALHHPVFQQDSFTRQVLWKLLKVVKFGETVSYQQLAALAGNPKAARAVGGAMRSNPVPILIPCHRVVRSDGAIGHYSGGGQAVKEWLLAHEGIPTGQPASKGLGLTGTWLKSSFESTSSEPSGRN
# Description: ATase substrate DNA was prepared by incubation of purified calf thymes DNA with N-[^3 H]-methyl-N-nitrosuourea (18.7 Ci/mmole, Amersham International). Cell or tissue extracts (see 4.4) were incubated with [^3 H]-methylated-DNA substrate (100 μl containing 6.7 μg of DNA and 100 fmol of O^6 -[^3 H]methylguanine) at 37° C. for 60 mins. Following acid hydrolysis of the DNA as precviously described^21the [^3 H]-methylated protein was recovered and quantitated by liquid scintillation counting. […]
# The mice in the tests shown in FIGS. 17 and 18 were BALB-C derived athymic male mice (nu/nu athymic) from the in-house breeding colony at the Paterson Institute for Cancer Research as described above (Animal Services Unit-ASU Mice).
# Animals were given a single dose of B.4280 (10 mg/kg i.p.) and sacrificed
# [1] = biological target: T3, ATase in human melanoma xenografts (Homo sapiens, UniProt P16455); test: ATase activity in human melanoma (A375) xenografts grown in nude mice after inactivator; type: in vivo; conditions: for inactivation of ATase in human melanoma xenografts, in words: single i.p. dose 30 or 60 mg/kg (FIG. 17); for ATase mean activity (fm/mg): Tumour
# T3 construct: A375M cells are human melanoma cells from which the xenografts described below were established; endogenous in cells; host or cells: A375M xenograft grown in nude mice
# T3 sequence (P16455 1-207): T1 sequence (P16455 1-207)
# Description: Cells (10^6) in 100 μl of PBS were injected subcutaneously into the right-hand flank of 8-10 week old nu/nu athymic mice. These cells were allowed to develop into a tumour for 3-4 weeks for passaging into experimental animals. Tumour blocks measuring 2 mm×2 mm×2 mm were implanted subcutaneously on the right hand flank. These animals were ready for use in inactivator experiments in 7-10 days.
# ATase substrate DNA was prepared by incubation of purified calf thymes DNA with N-[^3 H]-methyl-N-nitrosuourea (18.7 Ci/mmole, Amersham International). Cell or tissue extracts (see 4.4) were incubated with [^3 H]-methylated-DNA substrate (100 μl containing 6.7 μg of DNA and 100 fmol of O^6 -[^3 H]methylguanine) at 37° C. for 60 mins. Following acid hydrolysis of the DNA as precviously described^21the [^3 H]-methylated protein was recovered and quantitated by liquid scintillation counting.
# (§1) Mice were treated with the inactivator as a suspension in corn oil by intraperitoneal injection (i.p.) or by oral gavage (p.o.) 60 mins prior to temozolomide (100 mg/kg in 20% DMSO in phosphate-buffered saline) which was always given by intraperitoneal injection: this schedule was repeated on days 1 to 5 inclusive. Controls received vehicle alone, inactivator alone or temozolomide alone.
# [2] = biological target: T3, ATase in human melanoma xenografts; test: as above; type: in vivo; conditions: with temozolomide 50 mg/kg i.p., three consecutive days, 24 hours after final dose (FIG. 19)
# [3] = tested on: human melanoma xenografts; test: Sensitization of human melanoma xenografts to temozolomide; type: in vivo, nude mice; conditions: for sensitizing human melanoma xenografts to growth inhibitory effects of temozolomide, in words: inactivator i.p. 1 hour before temozolomide 100 mg/kg i.p., five consecutive days (FIGS. 21A, 22A)
# Description: Xenograft tumour measurements were taken every 1-2 days by workers using digital calipers. Tumour volume was calculated using the formula (h×w×l)π/6. The experimental animals were also weighed every 1-2 days. Measurements continued until tumours in the control animals reached the maximum allowable volume (i.e. 1 cm×1 cm×1 cm).
# as §1
# The mice in the tests shown in FIGS. 19-24 were Swiss mouse derived athymic male mice ([…]) from ZENECA Pharmaceuticals, Mereside, Alderley Park, Macclesfield, Cheshire SK10 4T6, England.
# DBA2 mice = test: Toxicity of inactivators in combination with temozolomide in non-tumour-bearing DBA2 mice; type: in vivo, mouse; conditions: 20 mg/kg inactivator + temozolomide 100 mg/kg i.p., four consecutive days (FIG. 25)
# Description: FIG. 25 is a graph showing the survival of animals in a comparative test of toxicity of BeG, B.4205 and B.4280 in combination with temozolomide (TZ) in non-tumour-bearing DBA, mice. Animals were given temozolomide alone (100 mg/kg i.p) or BeG (10 or 20 mg/kg i.p.), B.4205 (10 or 20 mg/kg i.p.) or B.4280 (10 or 20 mg/kg i.p.) followed one hour later by temozolomide (100 mg/kg i.p.) on four consecutive days. The vehicles were corn oil for the inactivators and PBS (20% DMSO) for temozolomide.
compound,measurement,setting,value
"Nc1nc(OCc2cccs2)c2nc[nH]c2n1 [B.4205, 0^6 -thenylguanine]","ATase inactivation in vitro, result in words",recombinant human ATase,considerably better; also recorded: I50 values lower than that of BeG
same,"inactivation of ATase in mouse tissues, in words",ATase,able to inactivate ATase in most mouse tissues examined but there was less inactivation in brain than other tissues
same,"inactivating ATase in human melanoma xenografts, in words",[1]; 30 mg/kg (FIG. 8),as effetive as BeG
same,"inactivation of ATase in human melanoma xenografts, in words",[1],inactivated
same,"ATase inactivation in tumour xenografts, in words",[2],more effective in ATase inactivation in tumour xenografts than either agent alone and 10 mg/kg being ag ettentive as 60 mg/kg
same,"sensitizing human melanoma xenografts to growth inhibitory effects of temozolomide, in words",[3],effective in sensitizing
same,"acute toxicity in combination with temozolomide in DBA2 mice, in words",DBA2 mice,less acutely toxic than BeG
"Nc1nc(OCc2cc(Br)cs2)c2nc[nH]c2n1 [B.4280, O^6-(4-bromothenyl)guanine]",IC50,recombinant human ATase,3.4 nM
same,"ATase inactivation in vitro, result in words",recombinant human ATase,more efficient in inactivating ATase in vitro than its 5-bromo analogue B.4269; also recorded: more efficient than the unsubstituted thenyl derivative B.4205
same,ATase mean activity (fm/mg),"ATase; Bone Marrow (pooled), 24 h after 10 mg/kg i.p.",42 fm/mg
same,ATase mean activity (fm/mg),"ATase; Bone Marrow (pooled), 48 h after 10 mg/kg i.p.",61 fm/mg
same,ATase mean activity (fm/mg),"ATase; Brain, 24 h after 10 mg/kg i.p.",13.7 ± 2.05 fm/mg
same,ATase mean activity (fm/mg),"ATase; Brain, 48 h after 10 mg/kg i.p.",16.3 ± 1.25 fm/mg
same,ATase mean activity (fm/mg),"ATase; Kidney, 24 h after 10 mg/kg i.p.",24.3 ± 4.03 fm/mg
same,ATase mean activity (fm/mg),"ATase; Kidney, 48 h after 10 mg/kg i.p.",28.7 ± 4.11 fm/mg
same,ATase mean activity (fm/mg),"ATase; Liver, 24 h after 10 mg/kg i.p.",89.7 ± 10.14 fm/mg
same,ATase mean activity (fm/mg),"ATase; Liver, 48 h after 10 mg/kg i.p.",100.7 ± 8.73 fm/mg
same,ATase mean activity (fm/mg),"ATase; Lung, 24 h after 10 mg/kg i.p.",15.3 ± 2.05 fm/mg
same,ATase mean activity (fm/mg),"ATase; Lung, 48 h after 10 mg/kg i.p.",24 ± 2.83 fm/mg
same,ATase mean activity (fm/mg),"ATase; Spleen, 24 h after 10 mg/kg i.p.",41 ± 5.35 fm/mg
same,ATase mean activity (fm/mg),"ATase; Spleen, 48 h after 10 mg/kg i.p.",68.3 ± 9.53 fm/mg
same,ATase mean activity (fm/mg),"ATase; Testis, 24 h after 10 mg/kg i.p.",45 ± 7.48 fm/mg
same,ATase mean activity (fm/mg),"ATase; Testis, 48 h after 10 mg/kg i.p.",44 ± 1.41 fm/mg
same,"inactivation of ATase in mouse tissues, in words",ATase,able to inactivate ATase in most tissues
same,"recovery of tumour ATase activity, in words",[1]; 10 mg/kg i.p. (Table 10),very low at 24 hours but had recovered completely by 48 hours
same,ATase mean activity (fm/mg),[1]; 24 h after 10 mg/kg i.p.,36 ± 7.79 fm/mg
same,ATase mean activity (fm/mg),[1]; 48 h after 10 mg/kg i.p.,140 ± 43.87 fm/mg
same,"inactivation of ATase in human melanoma xenografts, in words",[1],inactivated; also recorded: the most effective in vivo inactivator at the doses examined
same,"ATase inactivation in tumour xenografts, in words",[2],more effective in ATase inactivation in tumour xenografts than either agent alone; also recorded: more effective than B.4205 at equivalent doses
same,"oral versus i.p. administration in sensitizing xenografts to temozolomide, in words",[3]; 30 mg/kg p.o. vs 20 mg/kg i.p. (FIG. 24A),almost as effective as i.p. administration
same,"sensitizing human melanoma xenografts to growth inhibitory effects of temozolomide, in words",[3],effective in sensitizing; also recorded: about twice as effective as B.4205
same,"acute toxicity in combination with temozolomide in DBA2 mice, in words",DBA2 mice,less acutely toxic than BeG; also recorded: less acutely toxic than B.4205
